Results reported in US20240269197A1, “INSULIN-SENSITIZING AGENT AND BUTYRATE-PRODUCING BACTERIUM” (priority 2021, published 2024).
Counter-ions that a name gives are not always drawn.

tested on: subjects aged 18-65 years with a HOMA(-IR) score between 2.5 and 3.5 (insulin resistance); assay: Reduction in HOMA-IR after 28 days of (non-)butyrate-producing bacteria with or without (non-)insulin-sensitizing agents (Experimental Example 1); type: in vivo, human; parameters: key: Non-measurable: the first rank describes the lowest effect; Very low: very low; Low: low; Low/medium: low/medium; Medium: medium; High: high; Very high: the last rank describes the highest effect; details: supplement alone, bacterium placebo
From the text: The term ‘insulin resistance’ is well known by the skilled person. Within this disclosure, the term encompasses all conditions diagnosed as ‘insulin resistance’ by an (authorized) medical practitioner. The term ‘insulin resistance’ as used herein preferably refers to peripheral insulin resistance and/or hepatic insulin resistance. Insulin resistance may be diagnosed, for example, by the gold standard that is the “hyperinsulinemic euglycemic clamp” (DeFronzo R A, Tobin J D, Andres R, Am J Physiol. 1979 September; 237(3): E214-23). This method measures the amount of glucose necessary to compensate for an increased insulin level without causing hypoglycemia. The procedure may take two hours and typically involves the following steps: Through a peripheral vein, insulin is infused at 10-120 mU per m^2 per minute. In order to compensate for the insulin infusion, glucose 20% is infused to maintain blood sugar levels between 5 and 5.5 mmol/L. The rate of glucose infusion is determined by checking the blood sugar levels every five to ten minutes (Muniyappa R, Lee S, Chen H, Quon M J, January 2008, American Journal of Physiology. Endocrinology and Metabolism. 294 (1): E15-26). […] The homeostatic model assessment for insulin resistance (HOMA or HOMA-IR) is an alternative method used to determine and quantify insulin resistance in a fasting steady-state condition, and correlates reasonably with the golden standard (See e.g., Matthews D R, Hosker J P, Rudenski A S, Naylor B A, Treacher D F, Turner R C (1985). Diabetologia. 28 (7): 412-9. Doi:10.1007/BF00280883. PMID 3899825; and/or A. S. Rudenski; D. R. Matthews; J. C. Levy; R. C. Turner (1991) Metabolism. 40 (9): 908-917). […] The HOMA(-IR) value can be calculated by the following equation: […]
Mixed male/female subjects aged 18-65 years with a HOMA(-IR) score between 2.5 and 3.5, thus indicating insulin resistance, are included in the study. The HOMA-IR can be determined as described herein elsewhere. The HOMA(-IR) is measured at baseline and after 28 days. […]

Molecule	reduction in HOMA-IR value
CN(C)C(=N)NC(=N)N [Metformin, 1,1-dimethylbiguanide hydrochloride, reference compound]	Low/medium
OC[C@@H](O)[C@@H](O)[C@H](O)[C@@H](O)CO [Sorbitol, D-glucitol]	Low/medium
chromium(III) picolinate	Very low
